Laboratory results taken from US20240228488A1 (TAKEDA PHARMACEUTICAL COMPANY LIMITED, priority 2021, published 2024).

molecular target: human activated kallikrein enzyme (Homo sapiens, UniProt P03952); assay: Plasma kallikrein inhibition, fluorogenic PFR-AMC substrate, 500 pM activated kallikrein format; format: biochemical; conditions: 500 pM activated kallikrein, 300 uM PFR-AMC, 30 min preincubation, 10 min reaction; read-out: Primary Dose Response Assay: Average EC50
Summary of the method: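 High-enzyme format of the fluorogenic peptide assay, with EC50 taken from AMC signal: 500 pM activated kallikrein, 300 uM Pro-Phe-Arg-AMC, 30 min compound preincubation and 10 min reaction, all at room temperature, pH 7.5.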

human activated kallikrein enzyme, sequence (P03952 391-638 limits assumed): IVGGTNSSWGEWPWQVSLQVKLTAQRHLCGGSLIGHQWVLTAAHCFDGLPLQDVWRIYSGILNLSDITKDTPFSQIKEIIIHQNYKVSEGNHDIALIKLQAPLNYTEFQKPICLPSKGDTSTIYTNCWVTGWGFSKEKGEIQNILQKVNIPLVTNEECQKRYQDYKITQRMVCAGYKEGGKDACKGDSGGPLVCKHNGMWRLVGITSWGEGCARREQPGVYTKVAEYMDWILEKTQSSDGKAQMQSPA
human activated kallikrein enzyme, sequence (P03952 20-390 partner limits assumed): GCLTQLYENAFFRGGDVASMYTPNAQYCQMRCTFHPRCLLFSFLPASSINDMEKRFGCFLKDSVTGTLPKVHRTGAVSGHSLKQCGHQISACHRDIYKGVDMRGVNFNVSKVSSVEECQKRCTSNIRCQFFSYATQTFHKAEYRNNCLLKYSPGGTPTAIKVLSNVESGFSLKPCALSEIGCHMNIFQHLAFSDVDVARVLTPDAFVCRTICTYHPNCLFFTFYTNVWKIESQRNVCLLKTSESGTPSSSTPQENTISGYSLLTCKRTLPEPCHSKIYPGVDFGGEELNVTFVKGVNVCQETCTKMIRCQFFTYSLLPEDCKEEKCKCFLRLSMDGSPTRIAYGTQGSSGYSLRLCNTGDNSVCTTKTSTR

EC50 [nM]	Structure (SMILES)
< 1	Cc1ccnc([C@H]2C[C@@H]2C(=O)Nc2cc(N[C@H](C)c3cn4cc(C5CC5)cc(N=S(C)(C)=O)c4n3)ncn2)n1 [Example 422, (1S,2S)-N-(6-(((R)-1-(6-cyclopropyl-8-((dimethyl(oxo)-16-sulfaneylidene)amino)imidazo[1,2-a]pyridin-2-yl)ethyl)amino)pyrimidin-4-yl)-2-(4-methylpyrimidin-2-yl)cyclopropane-1-carboxamide]
10 to 100	O=C(Nc1cncc(NCc2cn3cc(C4CC4)ccc3n2)n1)[C@H]1C[C@@H]1c1cccc(Cl)c1 (racemic) [Example 345, (rac-(1S*,2S*))-2-(3-chlorophenyl)-N-(6-(((6-cyclopropylimidazo[1,2-a]pyridin-2-yl)methyl)amino)pyrazin-2-yl)cyclopropane-1-carboxamide]
< 1	Cc1cc(N2CC(=O)N(C)C2=O)c2nc(C(C)Oc3cnnc(NC(=O)[C@H]4C[C@@H]4c4nccc(C)n4)c3)cn2c1 (stereo partly drawn) [Example 36, (1S,2S)-N-(5-(1-(6-methyl-8-(3-methyl-2,4-dioxoimidazolidin-1-yl)imidazo[1,2-α]pyridin-2-yl)ethoxy)pyridazin-3-yl)-2-(4-methylpyrimidin-2-yl)cyclopropane-1-carboxamide]
10 to 100	O=C(Nc1cc(NCc2cn3cc(Cl)ccc3n2)ncn1)[C@H]1C[C@@H]1c1cccc(Cl)c1 [Example I-203, (1S,2S)-N-(6-(((6-chloroimidazo[1,2-a]pyridin-2-yl)methyl)amino)pyrimidin-4-yl)-2-(3-chlorophenyl)cyclopropane-1-carboxamide]
< 1	Cc1ccnc([C@H]2C[C@@H]2C(=O)Nc2nncc(N(C)Cc3cn4cc(C5CC5)cc(N5CC(=O)N(C)C5=O)c4n3)n2)n1 [Example 668, (1S,2S)—N-(5-(((6-cyclopropyl-8-(3-methyl-2,4-dioxoimidazolidin-1-yl)imidazo[1,2-a]pyridin-2-yl)methyl)(methyl)amino)-1,2,4-triazin-3-yl)-2-(4-methylpyrimidin-2-yl)cyclopropane-1-carboxamide]
< 1	O=C(Nc1cc(NCc2cn3cc(C4CC4)cc(OC4CNC4)c3n2)ncn1)[C@H]1C[C@@H]1c1cccc(Cl)c1 [Example 306, (1S,2S)—N-(6-(((8-(azetidin-3-yloxy)-6-cyclopropylimidazo[1,2-a]pyridin-2-yl)methyl)amino)pyrimidin-4-yl)-2-(3-chlorophenyl)cyclopropane-1-carboxamide]
> 6000	O=C(Nc1nnc(NCc2cn3cc(C4CC4)ccc3n2)s1)[C@H]1C[C@@H]1c1cccc(Cl)c1 [Example 606, (1S,2S)-2-(3-chlorophenyl)-N-(5-(((6-cyclopropylimidazo[1,2-a]pyridin-2-yl)methyl)amino)-1,3,4-thiadiazol-2-yl)cyclopropane-1-carboxamide]
1 to 10	Cc1nc(NC(=O)[C@H]2C[C@@H]2c2nsc(C)n2)cc(N[C@H](C)c2cn3cc(C4CC4)cc(N4CC(=O)N(C)C4=O)c3n2)n1 (relative stereo) [Example 527, rac-(1S*,2S*)-N-(6-(((R)-1-(6-cyclopropyl-8-(3-methyl-2,4-dioxoimidazolidin-1-yl)imidazo[1,2-a]pyridin-2-yl)ethyl)amino)-2-methylpyrimidin-4-yl)-2-(5-methyl-1,2,4-thiadiazol-3-yl)cyclopropane-1-carboxamide]
10 to 100	Cc1ccnc([C@H]2C[C@@H]2C(=O)Nc2cc(N[C@@H](C)c3cn4cc(C(F)F)cc(N5CC(=O)N(C)C5=O)c4n3)nc(C)n2)n1 [Example 427, (1S,2S)-N-(6-(((S)-1-(6-(difluoromethyl)-8-(3-methyl-2,4-dioxoimidazolidin-1-yl)imidazo[1,2-a]pyridin-2-yl)ethyl)amino)-2-methylpyrimidin-4-yl)-2-(4-methylpyrimidin-2-yl)cyclopropane-1-carboxamide]
1 to 10	CN1CCN(c2cc(C3CC3)cn3cc(CNc4cncc(NC(=O)[C@H]5C[C@@H]5c5cccc(Cl)c5)n4)nc23)CC1 [Example I-255, (1S,2S)-2-(3-chlorophenyl)-N-(6-(((6-cyclopropyl-8-(4-methylpiperazin-1-yl)imidazo[1,2-a]pyridin-2-yl)methyl)amino)pyrazin-2-yl)cyclopropane-1-carboxamide]
10 to 100	O=C(Nc1cc(NCc2cn3cc(C4CC4)ccc3n2)ncn1)[C@H]1[C@H](CO)[C@@H]1c1cccc(Cl)c1 (racemic) [Example I-180, rac-(1R*,2S*,3R*)-2-(3-chlorophenyl)-N-(6-(((6-cyclopropylimidazo[1,2-a]pyridin-2-yl)methyl)amino)pyrimidin-4-yl)-3-(hydroxymethyl)cyclopropane-1-carboxamide]
1 to 10	O=C(Nc1nccc2cn(Cc3cn4cc(C5CC5)ccc4n3)nc12)[C@H]1C[C@@H]1c1cccc(Cl)c1 (racemic) [Example 592, rac-(1S*,2S*)-2-(3-chlorophenyl)-N-(2-((6-cyclopropylimidazo[1,2-a]pyridin-2-yl)methyl)-2H-pyrazolo[3,4-c]pyridin-7-yl)cyclopropane-1-carboxamide]
100 to 1000	Nc1ccc([C@H]2C[C@@H]2C(=O)Nc2cc(NCc3cn4cc(C5CC5)ccc4n3)ncn2)cc1Cl (racemic) [Example 278, rac-(1S*,2S*)-2-(4-amino-3-chlorophenyl)-N-(6-(((6-cyclopropylimidazo[1,2-a]pyridin-2-yl)methyl)amino)pyrimidin-4-yl)cyclopropane-1-carboxamide]
10 to 100	O=C(Nc1cc(OCc2cn3cc(C4CC4)ccc3n2)cnn1)[C@H]1C[C@@H]1c1cccc(Cl)c1 (racemic) [Example 103, rac-(1S*,2S*)-2-(3-chlorophenyl)-N-(5-((6-cyclopropylimidazo[1,2-a]pyridin-2-yl)methoxy)pyridazin-3-yl)cyclopropane-1-carboxamide]
1 to 10	Cc1ccnc([C@H]2C[C@@H]2C(=O)Nc2cc(NCc3cn4cc(C5CC5)cc(N5CC(=O)N(C)C5=O)c4n3)c(F)cc2F)n1 [Example 659, (1S,2S)—N-(5-(((6-cyclopropyl-8-(3-methyl-2,4-dioxoimidazolidin-1-yl)imidazo[1,2-a]pyridin-2-yl)methyl)amino)-2,4-difluorophenyl)-2-(4-methylpyrimidin-2-yl)cyclopropane-1-carboxamide]
100 to 1000	O=C(Nc1cc(Cc2cn3cc(C4CC4)ccc3n2)ncn1)[C@H]1C[C@@H]1c1cccc(Cl)c1 (racemic) [Example 587, rac-(1S*,2S*)-2-(3-chlorophenyl)-N-(6-((6-cyclopropylimidazo[1,2-a]pyridin-2-yl)methyl)pyrimidin-4-yl)cyclopropane-1-carboxamide]
100 to 1000	O=C(Nc1ncccc1OCc1cn2cc(C3CC3)ccc2n1)[C@H]1C[C@@H]1c1cccc(Cl)c1 [Example 569, (1S,2S)-2-(3-chlorophenyl)-N-(3-((6-cyclopropylimidazo[1,2-a]pyridin-2-yl)methoxy)pyridin-2-yl)cyclopropane-1-carboxamide]
10 to 100	C[C@H]1[C@H](C(=O)Nc2cc(NCc3cn4cc(C5CC5)ccc4n3)ncn2)[C@H]1c1cccc(Cl)c1 (single isomer, unassigned) [Example 505, (1R*,2R*,3S*)-2-(3-chlorophenyl)-N-(6-(((6-cyclopropylimidazo[1,2-a]pyridin-2-yl)methyl)amino)pyrimidin-4-yl)-3-methylcyclopropane-1-carboxamide]
< 1	Cc1ccnc([C@H]2C[C@@H]2C(=O)Nc2ccc(F)c(OCc3cn4cc(C5CC5)cc(N5CC(=O)N(C)C5=O)c4n3)c2)n1 [Example 657, (1S,2S)—N-(3-((6-cyclopropyl-8-(3-methyl-2,4-dioxoimidazolidin-1-yl)imidazo[1,2-a]pyridin-2-yl)methoxy)-4-fluorophenyl)-2-(4-methylpyrimidin-2-yl)cyclopropane-1-carboxamide]
< 1	Cc1ccnc([C@H]2C[C@@H]2C(=O)Nc2nccc3nn(Cc4cn5cc(C6CC6)cc(N6CC(=O)N(C)C6=O)c5n4)cc23)n1 (racemic) [Example 576, rac-(1S*,2S*)—N-(2-((6-cyclopropyl-8-(3-methyl-2,4-dioxoimidazolidin-1-yl)imidazo[1,2-a]pyridin-2-yl)methyl)-2H-pyrazolo[4,3-c]pyridin-4-yl)-2-(4-methylpyrimidin-2-yl)cyclopropane-1-carboxamide]
< 1	Cc1ccnc([C@H]2C[C@@H]2C(=O)Nc2ncc(CO)c(OCc3cn4cc(C5CC5)cc(N5CC(=O)N(C)C5=O)c4n3)n2)n1 [Example 664, (1S,2S)—N-(4-((6-cyclopropyl-8-(3-methyl-2,4-dioxoimidazolidin-1-yl)imidazo[1,2-a]pyridin-2-yl)methoxy)-5-(hydroxymethyl)pyrimidin-2-yl)-2-(4-methylpyrimidin-2-yl)cyclopropane-1-carboxamide]
< 1	CCc1cc(N2CC(=O)N(C)C2=O)c2nc(CNc3cc(NC(=O)[C@H]4C[C@@H]4c4nccc(C)n4)nc(C)n3)cn2c1 [Example 537, (1S,2S)-N-(6-(((6-ethyl-8-(3-methyl-2,4-dioxoimidazolidin-1-yl)imidazo[1,2-a]pyridin-2-yl)methyl)amino)-2-methylpyrimidin-4-yl)-2-(4-methylpyrimidin-2-yl)cyclopropane-1-carboxamide]
< 1	Cc1ccnc([C@H]2C[C@@H]2C(=O)Nc2cc(N[C@H](C)c3cn4cc(C5CC5)cc(N5CC(=O)NC5=O)c4n3)ncn2)n1 [Example 533, (1S,2S)-N-(6-(((R)-1-(6-cyclopropyl-8-(2,4-dioxoimidazolidin-1-yl)imidazo[1,2-a]pyridin-2-yl)ethyl)amino)pyrimidin-4-yl)-2-(4-methylpyrimidin-2-yl)cyclopropane-1-carboxamide]
< 1	Cc1ccnc([C@H]2C[C@@H]2C(=O)Nc2cc(OCc3cn4cc(C5CC5)cc(N5CC(=O)N(C)C5=O)c4n3)c(CO)nn2)n1 [Example 677, (1S,2S)—N-(5-((6-cyclopropyl-8-(3-methyl-2,4-dioxoimidazolidin-1-yl)imidazo[1,2-a]pyridin-2-yl)methoxy)-6-(hydroxymethyl)pyridazin-3-yl)-2-(4-methylpyrimidin-2-yl)cyclopropane-1-carboxamide]
